Assay results: patent publication US7358249B2, “Heterocyclic compounds having inhibitory activity against HIV integrase” (Shionogi & Co., Ltd., priority 2002, dated 2008)
Counter-ions that a name gives are not always drawn.

Row | melting point | SMILES
1 | 129 to 131 °C | CC(=O)NNC(=O)c1cc(C(=O)OC2CCN(C(C)=O)CC2)c(O)c2ncc(Cc3ccc(F)cc3)cc12
2 | 250 to 251 °C | COC(=O)c1cc(NC(=O)C2CCCCC2)c2cc(Cc3ccc(F)cc3)cnc2c1O
3 | 229 to 230 °C (dec.) | CN(C)NC(=O)c1nc(C#CCNS(C)(=O)=O)c2cc(Cc3ccc(F)cc3)cnc2c1O
4 | 232 to 234 °C | CCCC(=O)c1cc(C(=O)O)c2cc(Cc3ccc(F)cc3)cnc2c1O
5 | 209 to 211 °C | COC(=O)c1cc(CC(N)=O)c2cc(Cc3ccc(F)cc3)cnc2c1O
6 | 198 to 199 °C | COC(=O)c1cc(C(=O)NN(C)C)c2cc(Cc3ccc(F)cc3)cnc2c1O
7 | 136 to 137 °C | COC(=O)c1cc(C(=O)N2CCCOCC2)c2cc(Cc3ccc(F)cc3)cnc2c1O
8 | 133 to 134 °C | COC(=O)c1cc(N2CCCCC2)c2cc(Cc3ccc(F)cc3)cnc2c1O
9 | 145 to 146 °C | COCCNC(=O)c1nc(C(=O)OC)c(O)c2ncc(Cc3ccc(F)cc3)cc12
10 | 229 to 230 °C | COC(=O)c1cc(NC(=O)c2ccnc(C)c2)c2cc(Cc3ccc(F)cc3)cnc2c1O (as salt: salt)
11 | 260 to 262 °C | COC(=O)c1nc(N2CCCC2=O)c2cc(Cc3ccc(F)cc3)cnc2c1O
12 | 230 to 232 °C | CC(=O)N1CCC(OC(=O)c2cc(C(=O)O)c3cc(Cc4ccc(F)cc4)cnc3c2O)CC1
13 | 184 to 185 °C | COC(=O)c1cc(C(=O)N2CCSCC2)c2cc(Cc3ccc(F)cc3)cnc2c1O
14 | 172 to 173 °C | COC(=O)c1cc(NC(=O)COc2ccccc2)c2cc(Cc3ccc(F)cc3)cnc2c1O
15 | 154 to 155 °C | COCC(=O)Nc1cc(C(=O)OC)c(O)c2ncc(Cc3ccc(F)cc3)cc12
16 | 218 to 220 °C | COC(=O)c1cc(CC(=O)O)c2cc(Cc3ccc(F)cc3)cnc2c1O
17 | 214.5 to 215.5 °C | CN(C)C(=O)c1cc(C(=O)O)c2cc(Cc3ccc(F)cc3)cnc2c1O

Row | melting point | SMILES
18 | 97 to 99 °C | CC(=O)N1CCC(OC(=O)c2cc(C(=O)NCCCO)c3cc(Cc4ccc(F)cc4)cnc3c2O)CC1
19 | 227 to 229 °C | CCCCC(=O)c1cc(C(=O)O)c2cc(Cc3ccc(F)cc3)cnc2c1O
20 | 90 to 91 °C | CCN(C=O)c1cc(C(=O)OC)c(O)c2ncc(Cc3ccc(F)cc3)cc12
21 | 239 to 240 °C | COC(=O)c1cc(NC(=O)Cc2ccc(F)cc2)c2cc(Cc3ccc(F)cc3)cnc2c1O
22 | 249 to 251 °C (dec.) | CC(C)OC(=O)c1cc(C(=O)O)c2cc(Cc3ccc(F)cc3)cnc2c1O
23 | 234 to 235 °C (dec.) | COCCOC(=O)c1cc(C(=O)O)c2cc(Cc3ccc(F)cc3)cnc2c1O
24 | 131 to 133 °C | COC(=O)c1cc(C(=O)OCc2ccccc2)c2cc(Cc3ccc(F)cc3)cnc2c1O
25 | 154 to 156 °C | COC(=O)c1cc(CN2C(=O)CCCC2=O)c2cc(Cc3ccc(F)cc3)cnc2c1O
26 | 173 to 175 °C | COC(=O)c1cc(CC#N)c2cc(Cc3ccc(F)cc3)cnc2c1O
27 | 261.5 to 262.5 °C | COC(=O)c1cc(NC(=N)N)c2cc(Cc3ccc(F)cc3)cnc2c1O.Cl
28 | 196 to 197 °C | COC(=O)c1cc(C(=O)N2CCC(O)CC2)c2cc(Cc3ccc(F)cc3)cnc2c1O
29 | 249 to 251 °C (dec.) | CCCOC(=O)c1cc(C(=O)O)c2cc(Cc3ccc(F)cc3)cnc2c1O
30 | 139 to 141 °C | COC(=O)C=Cc1cc(C(=O)OC)c(O)c2ncc(Cc3ccc(F)cc3)cc12
31 | 244 to 245 °C | COC(=O)c1cc(Cc2cc(C(=O)OC)c(O)c3ncc(Cc4ccc(F)cc4)cc23)c2cc(Cc3ccc(F)cc3)cnc2c1O
32 | 168 to 169 °C | COC(=O)Cc1cc(C(=O)OC)c(O)c2ncc(Cc3ccc(F)cc3)cc12
33 | 239 to 242 °C | CC(=O)c1cc(C(=O)O)c2cc(Cc3ccc(F)cc3)cnc2c1O
34 | 92 to 93 °C | CC(=O)N1CCC(OC(=O)c2cc(C(=O)NN(C)C)c3cc(Cc4ccc(F)cc4)cnc3c2O)CC1
